Reference: patent publication US20100098654A1

Columns and labels:
[1] = system: human neuroblastoma cells NXS2; assay: NXS2 xenografted mice, survival; format: in vivo; conditions: NXS2 in A/J mice
Protocol: Xenograft tumors were established in immunocompetent A/J mice by injecting […] neuroblastoma cells, NXS2, in the adrenal gland.
The immunocompetent mice were injected with another […] NB cell, NXS2 of 5×10^4 cells or 5×10^5 cells in the left adrenal gland. Tumors were allowed to grow for 2 days and reached the average volume of approximately 200 mm^3. […] Control group received HEPES-buffered saline. Survival time was used as the criteria for determining treatment efficacy.

[2] = system: human neuroblastoma cells (HTLA-230); assay: Pseudometastatic human neuroblastoma (HTLA-230) xenografted mice, survival; format: in vivo; conditions: HTLA-230 i.v. in nude mice, 10 mg/kg q2d×5
Protocol: Xenografts were established in mice by injecting human neuroblastoma cells (HTLA-230) intravenously at zero time point.
Four-week-old female athymic nude (nu/nu) mice were purchased from Harlan Laboratories (Harlan Italy-S.Pietro al Natisone, UD). Eight mice/group were injected with the human NB cell line, HTLA-230 (3.5×10^6 cells in 200 μl of HEPES-buffered saline) in the tail vein (i.v.) on day 0. The mice were then randomly assigned to each test group (8 mice per group). […] Control group received HEPES-buffered saline. The mice were monitored routinely for weight loss. Survival times were used as the criteria for determining treatment efficacy.

[3] = system: human neuroblastoma cells (GI-LI-N); assay: Orthotopic human neuroblastoma (GI-LI-N) xenografted mice; format: in vivo, mouse (human tumor xenograft)
Protocol: Xenograft tumors were established in mice by injecting human neuroblastoma cells (GI-LI-N) in the adrenal gland.
Five-week-old female athymic nude (nu/nu) mice were randomly assigned to each test group (8 mice per group). Eight mice/group were anaesthetised and injected with the human NB cell line, GI-LI-N (1×10^6 cells in 15 μl of HEPES buffer), after laparatomy, in the capsule of the left adrenal gland. Mice were monitored at least two times weekly for evidence of tumor development, quantification of tumor size, and evidence of tumor-associated morbidity. […] Control group received HEPES-buffered saline. The body weight and general physical status of the animals was observed daily and any mouse was terminated when a tumor reached 1000-1200 mm^3. Survival time was used as the criteria for determining treatment efficacy.
Tumors were removed from orthotopic neuroblastoma-bearing mice at day 50. Tumor sections were immunostained for NB84 as a neuroblastoma cell marker, and Ki-67 as a tumor cell proliferation marker. Cell nuclei were stained with DAPI.
Control group received HEPES-buffered saline.

[4] = GI-LI-N orthotopic (Example 27), 10 mg/kg q2d×5

Compound: CCc1c2c(nc3ccc(OC(=O)N4CCC(N5CCCCC5)CC4)cc13)-c1cc3c(c(=O)n1C2)COC(=O)[C@]3(O)CC [CPT-11]
- mice surviving ([1]; 10 mg/kg/dose q2d×5): None
- mice surviving ([1]; MTD (40 mg/kg) q2d×5): None
- mice surviving [2]: None
- time by which animals died ([2]; from the cancer injection): ≤ 85 days
- mice surviving [3, 4]: None
- time by which animals died [3, 4]: ≤ 80 days
- time by which animals died ([3]; GI-LI-N orthotopic (Example 30), 10 mg/kg/dose): ≤ 80 days
- mice surviving ([3]; GI-LI-N orthotopic (Example 30), 10 mg/kg/dose day 21, 23, 25, 27, 29): None
- effect on survival rate ([3]; GI-LI-N orthotopic (Example 30), at MTD (40 mg/kg)): slightly improved survival rate
